Reference: ChEMBL document CHEMBL1123689, “Quantitative structure-activity analysis in dihydropteroate synthase inhibition by sulfones. Comparison with sulfanilamides” (J Med Chem, 1987)
Values joined by “and” are separate entries in the source; they are usually repeats but may differ in a detail not shown here. Equal entries are not always repeated.

Experiments:
[1] = biological target: T1, Dihydropteroate synthase (Escherichia coli K-12) (UniProt P0AC13); assay: Inhibition of dihydropteroate synthase of Escherichia coli
T1 sequence (whole entry): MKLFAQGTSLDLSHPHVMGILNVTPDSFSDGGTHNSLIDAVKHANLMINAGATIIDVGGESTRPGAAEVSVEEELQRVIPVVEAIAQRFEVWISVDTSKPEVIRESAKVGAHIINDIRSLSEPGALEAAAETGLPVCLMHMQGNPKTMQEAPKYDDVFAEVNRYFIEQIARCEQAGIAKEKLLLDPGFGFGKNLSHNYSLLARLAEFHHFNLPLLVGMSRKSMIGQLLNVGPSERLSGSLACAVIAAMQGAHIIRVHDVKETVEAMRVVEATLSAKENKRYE

[2] = system: Mycobacterium 607; assay: Inhibition of Dihydropteroate synthase of Mycobacterium 607 and log (1/MIC) was reported
[3] = pKa value by spectrophotometrically at pH 8.2; type: physicochemical
[4] = pKa value by spectrophotometrically at pH 8.2 (for mono ionic form); type: physicochemical; settings: read-out: pKa1
[5] = pKa value was determined by spectrophotometrically at pH 8.2 (for di ionic form ); type: physicochemical; settings: read-out: pKa2
[6] = pKa value by spectrophotometrically at pH 8.2 (for di ionic form ); type: physicochemical; settings: read-out: pKa2

Question: With Nc1ccc(S(=O)(=O)c2ccc(N)cc2N)cc1 as the molecule, how does the EII50 [1] read?
Answer: 1.59

Question: Which EII50 [1] does the source give for Nc1ccc(S(=O)(=O)c2ccc(N)cc2)cc1 here?
Answer: 2.64

Question: With CCNc1ccc(S(=O)(=O)c2ccc(N)cc2)cc1 as the molecule, how does the EII50 [1] read?
Answer: 4.53

Question: And the Log 1/MIC [2]?
Answer: 4.26

Question: For Cc1ccc(S(=O)(=O)c2ccc(N)cc2)cc1, which EII50 [1] is on record?
Answer: 6.04

Question: For Cc1cc(C)c(S(=O)(=O)c2ccc(N)cc2)c(C)c1, which EII50 [1] is on record?
Answer: 1.69

Question: For CN(C)c1ccc(S(=O)(=O)c2ccc(N)cc2)cc1, which EII50 [1] is on record?
Answer: 3.63

Question: What does the source list for Nc1ccc(S(=O)(=O)c2cccc(N)c2)cc1?
Answer: EII50 [1]: 6.04; Log 1/MIC [2]: 4.62

Question: Which EII50 [1] does the source give for CCN(CC)c1ccc(S(=O)(=O)c2ccc(N)cc2)cc1 here?
Answer: 2.64

Question: With Nc1ccc(S(=O)(=O)c2ccc(C(=O)O)cc2)cc1 as the molecule, how does the pKa [3] read?
Answer: 3.6

Question: And the EII50 [1]?
Answer: 5.09

Question: With Nc1ccc(S(=O)(=O)c2ccc([N+](=O)[O-])cc2[N+](=O)[O-])cc1 as the molecule, how does the EII50 [1] read?
Answer: 36.3

Question: Which EII50 [1] does the source give for Nc1ccc(S(=O)(=O)c2ccccc2)cc1 here?
Answer: 9.56

Question: Which EII50 [1] does the source give for Nc1ccc(S(=O)(=O)c2c(Cl)cc(Cl)cc2Cl)cc1 here?
Answer: 3.31

Question: Which EII50 [1] does the source give for N#Cc1ccc(S(=O)(=O)c2ccc(N)cc2)cc1 here?
Answer: 67.3

Question: For Nc1ccc(S(=O)(=O)c2ccccc2N)cc1, which EII50 [1] is on record?
Answer: 2.27

Question: And the Log 1/MIC [2]?
Answer: 4.35

Question: With Nc1ccc(S(=O)(=O)c2ccc(Cl)cc2)cc1 as the molecule, how does the EII50 [1] read?
Answer: 20.8

Question: What does the source list for Nc1ccc(S(=O)(=O)c2ccc(F)cc2)cc1?
Answer: EII50 [1]: 18.1; Log 1/MIC [2]: 3.5

Question: Which EII50 [1] does the source give for CCN(CC)C(=O)c1ccc(S(=O)(=O)c2ccc(N)cc2)cc1 here?
Answer: 49.1

Question: Which EII50 [1] does the source give for Nc1ccc(S(=O)(=O)c2ccc(Cl)cc2Cl)cc1 here?
Answer: 2.24

Question: For CC(=O)c1ccc(S(=O)(=O)c2ccc(N)cc2)cc1, which EII50 [1] is on record?
Answer: 43.4

Question: With Cc1ccc(S(=O)(=O)c2ccc(N)cc2)c(C)c1 as the molecule, how does the EII50 [1] read?
Answer: 1.89

Question: Which EII50 [1] does the source give for COc1ccc(S(=O)(=O)c2ccc(N)cc2)cc1 here?
Answer: 6.6

Question: What about the Log 1/MIC [2] of the same molecule?
Answer: 4.02

Question: Which EII50 [1] does the source give for COc1ccc(S(=O)(=O)c2ccc(N)cc2)c(OC)c1 here?
Answer: 3.21

Question: What does the source list for Nc1ccc(S(=O)(=O)c2ccc(O)cc2O)cc1?
Answer: EII50 [1]: 0.71; pKa [4]: 7.67; pKa [5]: 10.1

Question: Which EII50 [1] does the source give for COc1cc(OC)c(S(=O)(=O)c2ccc(N)cc2)c(OC)c1 here?
Answer: 12.9

Question: Which EII50 [1] does the source give for Nc1ccc(S(=O)(=O)c2ccc(NC=O)cc2)cc1 here?
Answer: 5.79

Question: What about the Log 1/MIC [2] of the same molecule?
Answer: 4.74

Question: Which EII50 [1] does the source give for CC(=O)Nc1ccc(S(=O)(=O)c2ccc(N)cc2)cc1 here?
Answer: 5.75

Question: For Nc1ccc(S(=O)(=O)c2ccc(Br)cc2)cc1, which EII50 [1] is on record?
Answer: 11.1

Question: And the Log 1/MIC [2]?
Answer: 3.59

Question: For NC(=O)c1ccc(S(=O)(=O)c2ccc(N)cc2)cc1, which EII50 [1] is on record?
Answer: 22.6

Question: With Nc1ccc(S(=O)(=O)c2ccc([N+](=O)[O-])cc2)cc1 as the molecule, how does the EII50 [1] read?
Answer: 45.3

Question: What about the Log 1/MIC [2] of the same molecule?
Answer: 3.36

Question: Which EII50 [1] does the source give for COC(=O)c1ccc(S(=O)(=O)c2ccc(N)cc2)cc1 here?
Answer: 34

Question: With Nc1ccc(S(=O)(=O)c2ccc(NO)cc2)cc1 as the molecule, how does the EII50 [1] read?
Answer: 4.53

Question: And the Log 1/MIC [2]?
Answer: 4.46

Question: With Nc1ccc(S(=O)(=O)c2c(O)cc(O)cc2O)cc1 as the molecule, how does the pKa [6] read?
Answer: 9.62

Question: What about the EII50 [1] of the same molecule?
Answer: 1.46 and 1.91

Question: And the pKa [4]?
Answer: 7.69

Question: For Nc1ccc(S(=O)(=O)c2ccc(O)cc2)cc1, which EII50 [1] is on record?
Answer: 1.5 and 2.45

Question: And the Log 1/MIC [2]?
Answer: 5.96
